Paper PMC11477218 (International Journal of Molecular Sciences, 2024)
Where two headings read alike, the source gives them in different places.

Target: T1, 20S proteasome β5 subunit (Homo sapiens, UniProt P28074)
T1 construct: gene PSMB5; human erythrocyte 20S proteasome (constitutive); with other subunits of the 20S proteasome
T1 sequence (P28074 60-263): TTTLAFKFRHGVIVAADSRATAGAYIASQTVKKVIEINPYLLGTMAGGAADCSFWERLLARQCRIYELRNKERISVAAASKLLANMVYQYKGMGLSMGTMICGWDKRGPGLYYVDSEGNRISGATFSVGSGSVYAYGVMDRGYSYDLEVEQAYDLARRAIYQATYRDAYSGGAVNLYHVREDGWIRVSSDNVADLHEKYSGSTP
Experiment: fluorogenic Suc-LLVY-AMC chymotrypsin-like activity assay
Format: biochemical

| IC50 (read-out: IC50) [µM] | Structure (SMILES) | IC50 [µM] |
| --- | --- | --- |
| – | O=c1c(O)c(-c2ccc(O)c(O)c2)oc2cc(O)cc(O)c12 [quercetin] | 2.96 ± 0.77 |
| 12.2 ± 1.8 | COc1cc2ccn(C/C=C/C(=O)NCCC(C)C)c(=O)c2cc1OC [AM12] | – |
